Reference: patent US7534763B2 (Bristol-Myers Squibb Company, priority 2004, dated 2009)
Where two headings read alike, the source gives them in different places. *1 amine or outer side, *2 acyl side, *3 side chain or, on linkers, in order; H or OH if unused. Where a SMILES comes first, the peptide text is derived from it. [ ]: non-standard residue; d: D form. The star is where a group is joined. ξ: configuration not given here. Ala(6-(2-MePh)pyridin-3-yl) = Cc1ccccc1-c1ccc(C[C@H](N)C(=O)O)cn1; Phe(4-(2-Et-4-HO-Ph)) = CCc1cc(O)ccc1-c1ccc(C[C@H](N)C(=O)O)cc1; Bip(2'-Et-4'-OMe) = CCc1cc(OC)ccc1-c1ccc(C[C@H](N)C(=O)O)cc1; Lactoyl(3-(imidazol-4-yl)) = O=C([C@@H](O)Cc1c[nH]cn1)*; X2 = Cc1ccccc1-c1ncc(C[C@H](N[*:1])C(=O)[*:2])cn1; αMePhe(2,6-F2) = C[C@](N)(Cc1c(F)cccc1F)C(=O)O; αMePhe(2-F) = C[C@](N)(Cc1ccccc1F)C(=O)O; ξαMePhe(2-F) = CC(N)(Cc1ccccc1F)C(=O)O; αMeP = C[C@@]1(C(=O)O)CCCN1; dNMeA = CN[C@H](C)C(=O)O; ξαMeP = CC1(C(=O)O)CCCN1; Aib = CC(C)(N)C(=O)O; Moc = COC(=O)*

Experiments:
Format in all cases: in vivo
[1] = Dog pharmacokinetic study (iv and sc, solution vehicles); details: beagle, dog, plasma; for half-life: read-out: t½ (converted)
Description: The pharmacokinetic parameters of the compound of SEQ ID NO:9 were determined in male beagle dogs (n=4, 14±1 kg). Following an overnight fast, each animal received the compound of SEQ ID NO:9 either as an intravenous bolus via femoral vein (67 μg/kg) or by subcutaneous injection given at near the shoulder blades (67 μg/kg). Each animal received both intravenous and subcutaneous doses with a one-week washout between doses following a crossover design. […] Serial blood samples were collected in EDTA-containing microcentrifuge tubes at predose, 0.083, 0.25, 0.5, 0.75, 1, 2, 4, 6, 8, 24, and 30 hours post-dose after intravenous administration; at predose, 0.25, 0.5, 0.75, 1, 2, 4, 6, 8, 24, and 30 hours post-dose after subcutaneous administration. Approximately 0.3 mL of blood was collected at each time point. Blood samples were immediately centrifuged at 4° C. The obtained plasma was frozen with dry ice and stored at −20° C. Plasma drug levels were determined using the LC-MS/MS assay described above.
Plasma samples from in vivo dog study were prepared for analysis by precipitating plasma proteins with two volumes of acetonitrile containing an internal standard. The samples were vortex mixed and removed the precipitated proteins by centrifugation. The resulting supernatants were transferred to a 96-well plate and 10 μL were injected for analysis. Samples were prepared with the Packard Multiprobe II and Quadra 96 Liquid Handling System.
The HPLC system consisted of two Shimadzu LC10AD pumps (Columbia, Md.), a CTC PAL autosampler (Leap Technologies, Switzerland). The column used was a YMC Hydrosphere C18 (2.0×50 mm, 3 μm) (YMC, Inc., Milford, Ma.). The column temperature was maintained at 50° C. and the flow rate was 0.3 mL/minute. The mobile phase A consisted of 10 mM ammonium formate and 0.1% formic acid in water and mobile phase B consisted of 0.1% formic acid in acetonitrile. The initial mobile phase composition was 5% B, and remained at 5% B for one minute to equilibrate the column. The composition was ramped to 95% B over two minutes and held there for one additional minute. The mobile phase was then returned to initial conditions in one minute. Total analysis time was five minutes. A switching valve was used. The eluents between 0-1 minute were diverted to the waste.
The HPLC was interfaced to a Sciex API 4000 mass spectrometer, (Applied Biosystems, Foster City, Calif.) and was equipped with a TurboIonspray ionization source. Ultra high purity nitrogen was used as the nebulizing and turbo gas. The temperature of turbo gas was set at 300° C. and the interface heater was set at 60° C. Data acquisition utilized selected reaction monitoring (SRM). Ions representing the (M+2H)^2+ species for the compound of SEQ ID NO:9, and (M+2H)^2+ for BMS-501143 (IS) were selected in Q1 and were collisionally dissociated with high purity nitrogen at a pressure of 3.5×10^−3torr to form specific product ions which were subsequently monitored by Q3.
The standard curve concentrations, ranging from 1 to 1000 nM and from 4 to 5000 nM, were used for the in vivo samples obtained from low and high doses, respectively. The curves were fitted with a quadratic regression weighted by reciprocal […]. Standards were analyzed in duplicate. Quality control (QC) samples, prepared in blank matrix at the same concentrations as the standard were also analyzed in each analytical set. For the compound of SEQ ID NO:9, the calculated concentrations of more than 80% of the QCs were within 20% of nominal concentration, indicating acceptable assay performance.
The compound of SEQ ID NO:9 plasma concentration vs. time data were analyzed by noncompartmental methods using the […]™ software program. The Cmax and Tmax values were recorded directly from experimental observations. The AUC0-n and AUCtot values were calculated using a combination of linear and log trapezoidal summations. […]

[2] = Exposure during ipGTT in ob/ob mice; details: sc
Description: (§1) Peptides were dissolved in an appropriate vehicle at a concentration in nmol/ml equivalent to the dose that was to be administered in nmol/kg so that each mouse would receive the same volume/weight of dosing solution. Male C57BL/6J-ob/ob mice (10 weeks old) were randomized into groups of 6 mice per group based on fed plasma glucose and body weight. After an overnight fast, mice were weighed and placed in the experimental lab. After 30 min in the environment, the mice were bled via tail tip at −30 min and immediately injected subcutaneously (sc) with vehicle or the peptide dissolved in vehicle (0.1 ml solution/100 g body weight). At time 0 the mice were bled and then injected intraperitoneally with 50% glucose (2 g/kg) to initiate the intraperitoneal glucose tolerance test (ipGTT). The mice were bled 30, 60, 120 and 180 min after the glucose injection. Blood samples were drawn into potassium EDTA, placed on ice during the study and subsequently centrifuged for 10 min at 3000 rpm at 4° C. Plasma samples were diluted 11-fold for glucose analysis in the Cobas System. Another 5 μl plasma sample was diluted 5-fold with 20 μl of Sample Diluent (Insulin ELISA assay kit, Crystal Chem Inc.) and stored at −20° C. for subsequent analysis using the Ultra Sensitive Mouse Insulin ELISA kit (Crystal Chem Inc.).

ob/ob mice = experiment: intraperitoneal glucose tolerance test (ipGTT) after sc injection in ob/ob mice (plasma glucose, insulin); details: ob/ob mice; for effect on postprandial plasma glucose (in words): sc, ipGTT 0-180 or 210 min
Description: as §1

[3] = male, sc, 67 ug/kg, Table II, vehicle propylene glycol/pH 7.4 phosphate buffer (1:1), read-out: Exposure in dogs (sc@67 μg/kg)
[4] = 67 ug/kg, intravenous 67 μg/kg, Tables 6A-6C (6A vehicle 0.2 M Tris, pH 8.0)
[5] = sc, 67 ug/kg, subcutaneous 67 μg/kg, Tables 6A-6C (vehicle 0.2 M Tris, pH 8.0)

## CCc1cc(OC)ccc1-c1ccc(C[C@H](NC(=O)[C@H](CC(=O)O)NC(=O)[C@H](CO)NC(=O)[C@@H](NC(=O)[C@](C)(Cc2ccccc2F)NC(=O)[C@@H](NC(=O)CNC(=O)[C@H](CCC(=O)O)NC(=O)[C@@H](C)N(C)C(=O)[C@@H](N)Cc2c[nH]cn2)[C@@H](C)O)[C@@H](C)O)C(=O)N[C@@H](Cc2ccc(-c3ccccc3C)nc2)C(N)=O)cc1 [SEQ ID NO: 119] (H-H[dNMeA]EGT[αMePhe(2-F)]TSD[Bip(2'-Et-4'-OMe)][Ala(6-(2-MePh)pyridin-3-yl)]-NH2)
[1]; [3]
  AUC: 1.26 µM·h

## CCc1cc(OC)ccc1-c1ccc(C[C@H](NC(=O)[C@H](CC(=O)O)NC(=O)[C@H](Cc2c[nH]cn2)NC(=O)[C@@H](NC(=O)C(C)(Cc2ccccc2F)NC(=O)[C@@H](NC(=O)CNC(=O)[C@H](CCC(=O)O)NC(=O)C2(C)CCCN2C(=O)[C@@H](O)Cc2c[nH]cn2)[C@@H](C)O)[C@@H](C)O)C(=O)N[C@@H](Cc2ccc(-c3ccccc3C)nc2)C(N)=O)cc1 (stereo partly shown) [SEQ ID NO: 151] ({Lactoyl(3-(imidazol-4-yl))}-[ξαMeP]EGT[ξαMePhe(2-F)]THD[Bip(2'-Et-4'-OMe)][Ala(6-(2-MePh)pyridin-3-yl)]-NH2)
[2]
  Exposure/dose during ipGTT in ob/ob mice: 16 nM * h/nmol/kg
ob/ob mice
  effect on postprandial plasma glucose (in words): statistically significant decrease

## CCc1cc(OC)ccc1-c1ccc(C[C@H](NC(=O)[C@H](CC(=O)O)NC(=O)[C@H](CO)NC(=O)[C@@H](NC(=O)[C@](C)(Cc2ccccc2F)NC(=O)[C@@H](NC(=O)CNC(=O)[C@H](CCC(=O)O)NC(=O)C(C)(C)NC(=O)[C@@H](N)Cc2c[nH]cn2)[C@@H](C)O)[C@@H](C)O)C(=O)N[C@@H](Cc2cnc(-c3ccccc3C)nc2)C(N)=O)cc1 [SEQ ID NO: 130] (H-H[Aib]EGT[αMePhe(2-F)]TSD[Bip(2'-Et-4'-OMe)][X2]-NH2)
[1]; [3]
  AUC: 0.541 µM·h

## CCc1cc(OC)ccc1-c1ccc(C[C@H](NC(=O)[C@H](CC(=O)O)NC(=O)[C@H](CO)NC(=O)[C@@H](NC(=O)[C@](C)(Cc2ccccc2F)NC(=O)[C@@H](NC(=O)CNC(=O)[C@H](Cc2c[nH]cn2)NC(=O)C(C)(C)NC(=O)[C@@H](N)Cc2c[nH]cn2)[C@@H](C)O)[C@@H](C)O)C(=O)N[C@@H](Cc2ccc(-c3ccccc3C)nc2)C(N)=O)cc1 [SEQ ID NO: 150] (H-H[Aib]HGT[αMePhe(2-F)]TSD[Bip(2'-Et-4'-OMe)][Ala(6-(2-MePh)pyridin-3-yl)]-NH2)
[1]; [3]
  AUC: 0.979 µM·h

## CCc1cc(OC)ccc1-c1ccc(C[C@H](NC(=O)[C@H](CC(=O)O)NC(=O)[C@H](CO)NC(=O)[C@@H](NC(=O)C(C)(Cc2ccccc2F)NC(=O)[C@@H](NC(=O)CNC(=O)[C@H](CCC(=O)O)NC(=O)C2(C)CCCN2C(=O)[C@H](Cc2c[nH]cn2)NC(=O)OC)[C@@H](C)O)[C@@H](C)O)C(=O)N[C@@H](Cc2ccc(-c3ccccc3C)nc2)C(N)=O)cc1 (stereo partly shown) [SEQ ID NO: 139] (Moc-H[ξαMeP]EGT[ξαMePhe(2-F)]TSD[Bip(2'-Et-4'-OMe)][Ala(6-(2-MePh)pyridin-3-yl)]-NH2)
[1]; [3]
  AUC: 1.6 µM·h
ob/ob mice; 10 nmol/kg, vs vehicle group
  % AUC Reduction in Plasma Glucose in an IP Glucose Tolerance Test after SC Injection of Compound: −63% (p < 0.01)

## CCc1cc(O)ccc1-c1ccc(C[C@H](NC(=O)[C@H](CC(=O)O)NC(=O)[C@H](CO)NC(=O)[C@@H](NC(=O)C(C)(Cc2ccccc2F)NC(=O)[C@@H](NC(=O)CNC(=O)[C@H](CCC(=O)O)NC(=O)C2(C)CCCN2C(=O)[C@H](Cc2c[nH]cn2)NC(=O)OC)[C@@H](C)O)[C@@H](C)O)C(=O)N[C@@H](Cc2ccc(-c3ccccc3C)nc2)C(N)=O)cc1 (stereo partly shown) [SEQ ID NO: 158] (Moc-H[ξαMeP]EGT[ξαMePhe(2-F)]TSD[Phe(4-(2-Et-4-HO-Ph))][Ala(6-(2-MePh)pyridin-3-yl)]-NH2)
[1]; [4]
  MRT: 4.9 ± 0.7 h
  half-life: 4.4 ± 0.4 h
[1]; 67 ug/kg, intravenous 67 μg/kg, Tables 6A-6C (6A vehicle 0.2 M Tris, pH 8.0), read-out: AUCtot
  AUC: 1.39 ± 0.227 µM·h
[1]; 67 ug/kg, intravenous 67 μg/kg, Tables 6A-6C (6A vehicle 0.2 M Tris, pH 8.0), read-out: CLp
  clearance: 0.51 ± 0.08 mL/min/kg
[1]; [5]
  Cmax: 279 ± 82 nM
  MRT: 5.2 ± 1.5 h
  Tmax: 1.4 ± 0.7 h
  half-life: 3.9 ± 1.3 h
[1]; sc, 67 ug/kg, subcutaneous 67 μg/kg, Tables 6A-6C (vehicle 0.2 M Tris, pH 8.0), read-out: AUCtot
  AUC: 1.47 ± 0.563 µM·h
[1]; subcutaneous vs intravenous 67 μg/kg, Tables 6A-6C (vehicle 0.2 M Tris, pH 8.0)
  bioavailability: 110 ± 49%
[2]
  Exposure/dose during ipGTT in ob/ob mice: 11 nM * h/nmol/kg
ob/ob mice
  effect on postprandial plasma glucose (in words): statistically significant decrease

## CCc1cc(OC)ccc1-c1ccc(C[C@H](NC(=O)[C@H](CC(=O)O)NC(=O)[C@H](CO)NC(=O)[C@@H](NC(=O)[C@](C)(Cc2c(F)cccc2F)NC(=O)[C@@H](NC(=O)CNC(=O)[C@H](CCC(=O)O)NC(=O)[C@]2(C)CCCN2C(=O)[C@H](Cc2c[nH]cn2)NC(=O)OC)[C@@H](C)O)[C@@H](C)O)C(=O)N[C@@H](Cc2ccc(-c3ccccc3C)nc2)C(N)=O)cc1 [SEQ ID NO: 140] (Moc-H[αMeP]EGT[αMePhe(2,6-F2)]TSD[Bip(2'-Et-4'-OMe)][Ala(6-(2-MePh)pyridin-3-yl)]-NH2)
[1]; [3]
  AUC: 0.283 µM·h

## CCc1cc(OC)ccc1-c1ccc(C[C@H](NC(=O)[C@H](CC(=O)O)NC(=O)[C@H](Cc2c[nH]cn2)NC(=O)[C@@H](NC(=O)[C@](C)(Cc2ccccc2F)NC(=O)[C@@H](NC(=O)CNC(=O)[C@H](CCC(=O)O)NC(=O)[C@]2(C)CCCN2C(=O)[C@@H](N)Cc2c[nH]cn2)[C@@H](C)O)[C@@H](C)O)C(=O)N[C@@H](Cc2ccc(-c3ccccc3C)nc2)C(N)=O)cc1 [SEQ ID NO: 120] (H-H[αMeP]EGT[αMePhe(2-F)]THD[Bip(2'-Et-4'-OMe)][Ala(6-(2-MePh)pyridin-3-yl)]-NH2)
[1]; [3]
  AUC: 1.12 µM·h

## CCc1cc(OC)ccc1-c1ccc(C[C@H](NC(=O)[C@H](CC(=O)O)NC(=O)[C@H](CO)NC(=O)[C@@H](NC(=O)[C@](C)(Cc2ccccc2F)NC(=O)[C@@H](NC(=O)CNC(=O)[C@H](CCC(=O)O)NC(=O)[C@@H](C)NC(=O)[C@@H](N)Cc2c[nH]cn2)[C@@H](C)O)[C@@H](C)O)C(=O)N[C@@H](Cc2ccc(-c3ccccc3C)nc2)C(N)=O)cc1 [SEQ ID NO: 149] (H-H[dA]EGT[αMePhe(2-F)]TSD[Bip(2'-Et-4'-OMe)][Ala(6-(2-MePh)pyridin-3-yl)]-NH2)
[1]; [3]
  AUC: 0.94 µM·h
